Drawing on patent US20230143612A1 (Arbutus Biopharma Corporation, priority 2020, published 2023), this text covers IC50 for three molecules.

Sequence of PD-L1 His protein / PD-1 Fc protein (Q9NZQ7 19-238 limits assumed): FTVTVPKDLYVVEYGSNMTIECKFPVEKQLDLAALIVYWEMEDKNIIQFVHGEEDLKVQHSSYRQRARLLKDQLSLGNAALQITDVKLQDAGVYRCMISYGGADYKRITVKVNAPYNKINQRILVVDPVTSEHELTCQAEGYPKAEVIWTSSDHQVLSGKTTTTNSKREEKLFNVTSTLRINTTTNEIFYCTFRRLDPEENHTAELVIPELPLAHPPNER

The target of the assay is PD-L1 His protein / PD-1 Fc protein (Homo sapiens, UniProt Q9NZQ7). Kind of assay: HTRF Assay (PD-1/PD-L1 interaction). In kind it is binding. The settings on record: PD-L1 His 6 nM, PD-1 Fc 6 nM. The method in brief:
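HTRF: PD-L1 His (6 nM final), compound (3-fold dilutions, 20 μM to 0.001 μM final) and PD-1 Fc (6 nM final) preincubated 15 min at room temperature. Anti-human IgG-XL665 and anti-6HIS Tb cryptate (mixed at 6.7 nM and 0.35 nM) then added for 1 h at room temperature before reading.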
A general note: TR-FRET usually uses a lanthanide donor and a delayed reading to cut background.
In general, IC50 refers to the concentration at which inhibition is half-maximal. The low end stands for greater potency in that assay, the high end for weaker potency in that assay. Consider `COC(=O)C(C)(C)CNCc1nn2cc(-c3cccc(-c4cccc(-c5ccc(CNC[C@@H]6CCC(=O)N6)c(OC)n5)c4Cl)c3Cl)cc2c(=O)n1C` [Example 495, Methyl 3-[[6-[2-chloro-3-[2-chloro-3-[6-methoxy-5-[[[(2S)-5-oxopyrrolidin-2-yl]methylamino]methyl]-2-pyridyl]phenyl]phenyl]-3-methyl-4-oxo-pyrrolo[2,1-f][1,2,4]triazin-2-yl]methylamino]-2,2-dimethyl-propanoate], for which the IC50 was 0.7 nM. The result for `COc1nc(-c2cccc(-c3cccc(-c4cc5c(=O)n(C)c(CNCCC(F)F)nn5c4)c3Cl)c2Cl)ccc1CNC[C@@H]1CCC(=O)N1` [compound 465, (S)-6-(2,2′-Dichloro-3′-(6-methoxy-5-((((5-oxopyrrolidin-2-yl)methyl)amino)methyl)pyridin-2-yl)-[1,1′-biphenyl]-3-yl)-2-(((3,3-difluoropropyl)amino)methyl)-3-methylpyrrolo[2,1-f][1,2,4]triazin-4(3H)-one] reads 14 nM; that for `COc1nc(-c2cccc(-c3cccc(-c4cc5c(=O)n(C)c(CNC6CC(C)(O)C6)nn5c4)c3Cl)c2Cl)cc(F)c1CNC[C@@H]1CCC(=O)N1` (stereo partly drawn) [compound 480, (S)-6-(2,2′-dichloro-3′-(4-fluoro-6-methoxy-5-((((5-oxopyrrolidin-2-yl)methyl)amino)methyl)pyridin-2-yl)-[1,1′-biphenyl]-3-yl)-2-(((3-hydroxy-3-methylcyclobutyl)amino)methyl)-3-methylpyrrolo[2,1-f][1,2,4]triazin-4(3H)-one], 69 nM.
